Experimental data from paper PMC5290327, “SC83288 is a clinical development candidate for the treatment of severe malaria” (Nature Communications, 2017).
In brackets after ≈: the same amount, converted by molar mass. Read-outs that look alike come from different tables or passages of the source.

What was measured:
P. falciparum strain Dd2 = assay: Growth inhibition assay, asexual blood stages; format: cell-based, Plasmodium falciparum
P. falciparum strain D10 = assay: Growth inhibition assay; format: cell-based; details: Plasmodium falciparum
P. falciparum strain 3D7 = assay: Growth inhibition assay; format: cell-based; details: Plasmodium falciparum
[1] = test system: P. falciparum strain FCR3; assay: Growth inhibition assay; format: cell-based; details: Plasmodium falciparum
P. falciparum strain K1 = assay: microbe, parasite or virus in culture; format: cell-based; details: Plasmodium falciparum
[2] = test system: P. falciparum strain Thai19; assay: Growth inhibition assay; format: cell-based; details: Plasmodium falciparum
P. falciparum strain 7G8 = assay: microbe, parasite or virus in culture; format: cell-based; details: Plasmodium falciparum
[3] = test system: Dd2 P. falciparum parasites; assay: In vitro parasite reduction ratio assay (Sanz protocol); format: cell-based, Plasmodium falciparum
[4] = In vitro metabolism in liver microsomes; details: Human
[5] = In vitro metabolism in liver microsomes; details: Monkey
[6] = In vitro metabolism in liver microsomes; details: Dog
[7] = In vitro metabolism in liver microsomes; details: Mouse
[8] = In vitro metabolism in liver microsomes; details: Rat
Solubility in water = details: for Solubility in H2O: Supplementary Table 2
Plasmodium vinckei = assay: Rodent malaria model; format: in vivo; details: P. vinckei
Text: The two SC compounds were also active in the Plasmodium vinckei rodent malaria model system.

CACO 2 cells = assay: Permeability assay; format: in vitro ADME; details: Supplementary Table 2
Procedure: The study was conducted by Cyprotex (Macclesfield, United Kingdom). CACO 2 cells (Sigma-Aldrich, catalogue: 86010202) were seeded on Millipore Millicell plates and formed a confluent monolayer over 20 days before the experiment. On day 20, the tested compounds at a final concentration of 10 μM were added to the apical side of the membrane. The transport of the compound across the monolayer was monitored over a 2 h period by liquid chromatography (LC)–MS/MS quantification. The permeability coefficient (Papp) was calculated from the following equation: [drawing 1] , where dQ/dt is the rate of permeation of the drug across the cells, C0 the donor compartment concentration at time zero and A the area of the cell monolayer. C0 was obtained from analysis of the dosing solution at the start of the experiment.

[9] = Plasmodium falciparum, DD2, strain Dd2, Supplementary Table 3
[10] = major metabolite, read-out: IC50, antiplasmodial activity in vitro
[11] = Supplementary Table 2, read-out: In vitro IC50
[12] = Supplementary Table 8, read-out: In vitro IC50

## CCN(CC)Cc1cc(Nc2ccnc3cc(Cl)ccc23)ccc1O [Amodiaquin]
P. falciparum strain Dd2; [9]
  IC50: 7 ± 1 nM
P. falciparum strain D10
  IC50: 7 ± 2 nM
P. falciparum strain 3D7
  IC50: 8 ± 1 nM
[1]
  IC50: 8 ± 0.4 nM
P. falciparum strain K1
  IC50: 9 ± 1 nM
[2]
  IC50: 9 ± 1 nM
P. falciparum strain 7G8
  IC50: 7 ± 2 nM

## C[C@@H]1CC[C@H]2[C@@H](C)C(=O)O[C@@H]3O[C@@]4(C)CC[C@@H]1[C@]32OO4 [Artemisinin]
P. falciparum strain Dd2; [9]
  IC50: 2 ± 0.1 nM
P. falciparum strain D10
  IC50: 9 ± 0.4 nM
P. falciparum strain 3D7
  IC50: 8 ± 0.3 nM
[1]
  IC50: 5 ± 1 nM
P. falciparum strain K1
  IC50: 3 ± 1 nM
[2]
  IC50: 3 ± 1 nM
P. falciparum strain 7G8
  IC50: 1 ± 0.3 nM
[3]; 10 times IC50, Dd2
  In vitro PCT99.9%: 21 ± 3 h
  In vitro lag phase: zero
[3]; 10 times IC50, Dd2, over 48 h
  In vitro logPRR: 4.5±2

## CCN(CC)CCCC(C)Nc1ccnc2cc(Cl)ccc12 (centres unmarked) [Chloroquine]
P. falciparum strain D10
  IC50: 11 ± 30 nM
P. falciparum strain 3D7
  IC50: 3 nM
[1]
  IC50: 25 ± 40 nM
P. falciparum strain K1
  IC50: 70 ± 14 nM
[2]
  IC50: 74 ± 17 nM
P. falciparum strain 7G8
  IC50: 30 ± 70 nM

## OC(c1cc(C(F)(F)F)nc2c(C(F)(F)F)cccc12)C1CCCCN1 (centres unmarked) [Mefloquine]
P. falciparum strain Dd2; [9]
  IC50: 0.04 ± 0.1 nM
P. falciparum strain D10
  IC50: 0.01 nM
P. falciparum strain 3D7
  IC50: 0.04 ± 0.1 nM
[1]
  IC50: 0.04 nM
P. falciparum strain K1
  IC50: 0.01 nM
[2]
  IC50: 0.01 nM
P. falciparum strain 7G8
  IC50: 0.2 ± 0.1 nM

## N=C(c1cccc(NC(=O)Nc2ccc(S(=O)(=O)NCc3ccc(S(N)(=O)=O)cc3)cc2)c1)N1CCNCC1 [Metabolite 1]
P. falciparum strain Dd2; [10]
  IC50: 65 nM
[4]; SC81458 metabolites
  Share of metabolite from the total combined metabolite peak area: 7%
[4]; SC83288 metabolites
  Share of metabolite from the total combined metabolite peak area: 13.3%
[5]; SC81458 metabolites
  Share of metabolite from the total combined metabolite peak area: 10.5%
[5]; SC83288 metabolites
  Share of metabolite from the total combined metabolite peak area: 16.2%
[6]; SC81458 metabolites
  Share of metabolite from the total combined metabolite peak area: 63.6%
[6]; SC83288 metabolites
  Share of metabolite from the total combined metabolite peak area: 87.3%
[7]; SC81458 metabolites
  Share of metabolite from the total combined metabolite peak area: 22.2%
[7]; SC83288 metabolites
  Share of metabolite from the total combined metabolite peak area: 5%
[8]; SC81458 metabolites
  Share of metabolite from the total combined metabolite peak area: 27.8%
[8]; SC83288 metabolites
  Share of metabolite from the total combined metabolite peak area: 19.7%

## CCc1nc(N)nc(N)c1-c1ccc(Cl)cc1 [Pyrimethamine]
P. falciparum strain D10
  IC50: 11 ± 2 nM
P. falciparum strain 3D7
  IC50: 16 ± 3 nM
[1]
  IC50: 31 ± 8 nM
P. falciparum strain K1
  IC50: > 15000 nM
[2]
  IC50: > 15000 nM
P. falciparum strain 7G8
  IC50: > 15000 nM

## C=C[C@H]1C[N@@]2CC[C@H]1C[C@@H]2[C@@H](O)c1ccnc2ccc(OC)cc12 [Quinidine]
P. falciparum strain Dd2; [9]
  IC50: 15 ± 1 nM
P. falciparum strain D10
  IC50: 16 ± 1 nM
P. falciparum strain 3D7
  IC50: 14 ± 1 nM
[1]
  IC50: 32 ± 6 nM
P. falciparum strain K1
  IC50: 12 ± 3 nM
[2]
  IC50: 22 ± 5 nM
P. falciparum strain 7G8
  IC50: 16 ± 4 nM

## C=C[C@H]1C[N@@]2CC[C@H]1C[C@H]2[C@H](O)c1ccnc2ccc(OC)cc12 [Quinine]
P. falciparum strain Dd2; [9]
  IC50: 100 ± 10 nM
P. falciparum strain D10
  IC50: 58 ± 50 nM
P. falciparum strain 3D7
  IC50: 14 ± 20 nM
[1]
  IC50: 182 ± 27 nM
P. falciparum strain K1
  IC50: 46 ± 40 nM
[2]
  IC50: 62 ± 10 nM
P. falciparum strain 7G8
  IC50: 70 ± 17 nM

## N=C(N)c1cccc(NC(=O)Nc2ccc(S(=O)(=O)c3ccc(Br)cc3)cc2)c1 [SC48443]
P. falciparum strain Dd2; [11]
  IC50: 63.9 nM
Solubility in water
  Solubility in H2O: 100 µg/mL (≈ 211 µM)

## N=C(c1cccc(NC(=O)Nc2ccc(S(=O)(=O)c3ccc(Br)cc3)cc2)c1)N1CCC(O)CC1 [SC77215]
P. falciparum strain Dd2; [12]
  IC50: 68 nM
Plasmodium vinckei; 20 mg kg-1 i.p. 1x4 days
  Outcome: decrease of parasitemia: 45%

## N=C(c1cccc(NC(=O)Nc2ccc(S(=O)(=O)NCc3ccc(S(N)(=O)=O)cc3)cc2)c1)N1CCC(O)CC1 [SC77225]
P. falciparum strain Dd2; [11]
  IC50: 165 nM
CACO 2 cells
  Papp: 0.38 10-6 cm s-1

## N=C(c1cccc(NC(=O)Nc2ccc(S(=O)(=O)NCc3ccc(S(N)(=O)=O)cc3)cc2)c1)N1CCN(CCO)CC1 [SC81452]
P. falciparum strain Dd2; [11]
  IC50: 100 nM
Solubility in water
  Solubility in H2O: 32 µg/mL (≈ 52 µM)

## CCCCN1CCN(C(=N)c2cccc(NC(=O)Nc3ccc(S(N)(=O)=O)cc3)c2)CC1 [SC81458 M5]
[4]; SC81458 metabolites
  Share of metabolite from the total combined metabolite peak area: 51.4%
[5]; SC81458 metabolites
  Share of metabolite from the total combined metabolite peak area: 0.1%
[6]; SC81458 metabolites
  Share of metabolite from the total combined metabolite peak area: 3.1%
[7]; SC81458 metabolites
  Share of metabolite from the total combined metabolite peak area: 49%
[8]; SC81458 metabolites
  Share of metabolite from the total combined metabolite peak area: 23.3%

## C=CNC(=N)c1cccc(NC(=O)Nc2ccc(S(=O)(=O)NCc3ccc(S(N)(=O)=O)cc3)cc2)c1 [SC81458 M30]
[7]; SC81458 metabolites
  Share of metabolite from the total combined metabolite peak area: 1.8%

## N=C(c1cccc(NC(=O)Nc2ccc(S(=O)(=O)NCc3ccc(S(N)(=O)=O)cc3)cc2)c1)N1CCN(Cc2ccncc2)CC1 [SC82687]
P. falciparum strain Dd2; [11]
  IC50: 995 nM
Solubility in water
  Solubility in H2O: 32 µg/mL (≈ 48.3 µM)

## CCCCCN1CCN(C(=N)c2cccc(NC(=O)Nc3ccc(S(=O)(=O)NCc4ccc(S(N)(=O)=O)cc4)cc3)c2)CC1 [SC82833]
P. falciparum strain Dd2; [11]
  IC50: 13 nM
Solubility in water
  Solubility in H2O: 100 µg/mL (≈ 156 µM)

## CCN(CC)CCN(C)C(=N)c1cccc(NC(=O)Nc2ccc(S(=O)(=O)NCc3ccc(S(N)(=O)=O)cc3)cc2)c1 [SC82869]
P. falciparum strain Dd2; [11]
  IC50: 89 nM
Solubility in water
  Solubility in H2O: 320 µg/mL (≈ 520 µM)

## N=C(c1cccc(NC(=O)Nc2ccc(S(=O)(=O)NCc3ccc(S(N)(=O)=O)cc3)cc2)c1)N1CCNCC1 [SC82904]
P. falciparum strain Dd2; [12]
  IC50: 99 nM
Plasmodium vinckei; 30 mg kg-1 i.p. 1x4 days
  Outcome: no complete clearance
  Outcome: decrease of parasitemia: > 80%

## CC(=O)N1CCN(C(=N)c2cccc(NC(=O)Nc3ccc(S(=O)(=O)NCc4ccc(S(N)(=O)=O)cc4)cc3)c2)CC1 [SC83287]
P. falciparum strain Dd2; [11]
  IC50: 5000 nM
Solubility in water
  Solubility in H2O: 10 µg/mL (≈ 16.3 µM)

## N=C(c1cccc(NC(=O)Nc2ccc(S(=O)(=O)NCc3ccc(S(N)(=O)=O)cc3)cc2)c1)N1CCN(C=O)CC1 [SC83288 M8]
[4]; SC83288 metabolites
  Share of metabolite from the total combined metabolite peak area: 0.1%
[5]; SC83288 metabolites
  Share of metabolite from the total combined metabolite peak area: 0.2%
[6]; SC83288 metabolites
  Share of metabolite from the total combined metabolite peak area: 0.5%
[7]; SC83288 metabolites
  Share of metabolite from the total combined metabolite peak area: 0.9%
[8]; SC83288 metabolites
  Share of metabolite from the total combined metabolite peak area: 0.6%

## COC(=O)N1CCN(C(=N)c2cccc(NC(=O)Nc3ccc(S(N)(=O)=O)cc3)c2)CC1 [SC83288 M9]
[4]; SC83288 metabolites
  Share of metabolite from the total combined metabolite peak area: 82%
[5]; SC83288 metabolites
  Share of metabolite from the total combined metabolite peak area: 72.3%
[6]; SC83288 metabolites
  Share of metabolite from the total combined metabolite peak area: 4.8%
[7]; SC83288 metabolites
  Share of metabolite from the total combined metabolite peak area: 69.9%
[8]; SC83288 metabolites
  Share of metabolite from the total combined metabolite peak area: 69%

## CCCCC(=O)N1CCN(C(=N)c2cccc(NC(=O)Nc3ccc(S(=O)(=O)NCc4ccc(S(N)(=O)=O)cc4)cc3)c2)CC1 [SC83290]
P. falciparum strain Dd2; [11]
  IC50: 40 nM
Plasmodium vinckei; 30 mg kg-1 i.p. 1x4 days
  Outcome: no complete clearance
  Outcome: decrease of parasitemia: > 90%
Solubility in water
  Solubility in H2O: > 1000 µg/mL

## N=C(N)c1cccc(NC(=O)Nc2cccc(C(=N)N)c2)c1 [amicarbalide, reference compound]
P. falciparum strain Dd2; Plasmodium falciparum, DD2, read-out: In vitro IC50, Supplementary Table 2
  IC50: 10 nM
Solubility in water; water
  solubility: 100 µg/mL (≈ 337 µM)

## N=C(c1cccc(NC(=O)Nc2ccc(S(N)(=O)=O)cc2)c1)N1CCNCC1 [metabolite 2]
P. falciparum strain Dd2; [10]
  IC50: 5000 nM
[4]; SC81458 metabolites
  Share of metabolite from the total combined metabolite peak area: 4.7%
[4]; SC83288 metabolites
  Share of metabolite from the total combined metabolite peak area: 0.3%
[5]; SC81458 metabolites
  Share of metabolite from the total combined metabolite peak area: 7.6%
[5]; SC83288 metabolites
  Share of metabolite from the total combined metabolite peak area: 5.4%
[6]; SC81458 metabolites
  Share of metabolite from the total combined metabolite peak area: 1.6%
[8]; SC81458 metabolites
  Share of metabolite from the total combined metabolite peak area: 0.3%
[8]; SC83288 metabolites
  Share of metabolite from the total combined metabolite peak area: 0.3%
